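In this assay, cells in 96-well plates receive the compound at five concentrations for 48 hours. Endpoints are linearly interpolated between the surrounding concentrations. Abbreviation: GI50, concentration required for 50% inhibition of growth.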 The source made the active and inactive calls. Rule as the data show it: active = GI50 up to about 1.1 µM and inactive = higher.

The text below walks through data of ChEMBL document CHEMBL1201862, “PubChem BioAssay data set” (2004).

What all share (assay): DTP human tumour cell line panel, 48 h
Assay [1] has as its system NCI-H23.
The subject of assay [2] is SN12C.
For assay [3], the system named is PC-3.
Assay [4] relates to K562.
In assay [5] the test system is RPMI-8226.
The test system of assay [6] is HOP-62.
For assay [7], the system named is IGROV-1.
The subject of assay [8] is CCRF-CEM.
The test system of assay [9] is SF-268.
Assay [10] has as its system HT-29.
Assay [11] relates to 786-0.
In assay [12] the test system is UO-31.
In assay [13] the test system is SK-MEL-28.
In assay [14] the test system is Malme-3M.
The test system of assay [15] is M14.
For assay [16], the system named is SF-539.
The test system of assay [17] is SF-295.
The test system of assay [18] is ACHN.
Assay [19] concerns OVCAR-5.

For orientation: GI50 means the concentration that inhibits growth by half. For the compound `CCCOC(=O)c1cc(C(=CCC[C@H]2CC[C@@]3(C)[C@@H](CC[C@@H]4[C@@H]3CC[C@]3(C)[C@@H](C(C)CCCC(C)C)CC[C@@H]43)C2)c2cc(Cl)c(O)c(C(=O)OCCC)c2)cc(Cl)c1O` (stereo partly specified), the GI50 in assay [1] was > 50 µM (inactive); in assay [2], > 50 µM (inactive); in assay [3] it was > 50 µM (inactive); in assay [4], > 5 µM (inactive); in assay [5] it was > 50 µM (inactive); in assay [6] it was > 50 µM (inactive). For the same compound, the GI50 in [7], in assay [8], in assay [9], in assay [10] and in assay [11] was > 50 µM (inactive) throughout.

For the compound `CCOC(=O)CCC(NC(=O)c1ccc(Nc2cnc3cc(C(F)(F)F)ccc3n2)cc1)C(=O)OCC` (stereo unspecified), the GI50 is 27.7 µM (inactive) in assay [1]; > 100 µM (inactive) in assay [12]; > 100 µM (inactive) in assay [2]; > 100 µM (inactive) in assay [13]; 93.1 µM (inactive) in assay [4]; > 100 µM (inactive) in [5]. The GI50 in [6] was 11 µM (inactive); in assay [14], > 57 µM (inactive); in [15], 35.9 µM (inactive); in assay [16] it was > 100 µM (inactive); in assay [17], 12.8 µM (inactive); in assay [7], 42 µM (inactive). Besides, the GI50 in [18] is 63.2 µM (inactive); in assay [8] it was > 100 µM (inactive); in [9], 14.1 µM (inactive); in assay [19], > 100 µM (inactive); in assay [10], > 100 µM (inactive); in assay [11], 9.75 µM (inactive).

On to `CO/C(=N\N=C\c1ccc(OC)c(OC)c1)c1ccncc1`, for which the GI50 in [1] is > 10 µM (inactive); in [12], 9.55 µM (inactive); in assay [2], > 10 µM (inactive); in [4], > 10 µM (inactive); in assay [5] it was > 10 µM (inactive); in assay [6] it was > 10 µM (inactive). Further, the GI50 in [14], in [15], in assay [16], in assay [7], in assay [8] and in [9] was > 10 µM (inactive) each time. The GI50 in assay [11] is > 10 µM (inactive).

Turning to `NCCn1cnc2nc(NC(=O)c3ccccc3)[nH]c(=O)c21`, the GI50 in [1], in [12], in assay [2], in [13], in [4] and in assay [5] was > 100 µM (inactive) each time. Moreover, the GI50 in [6], in [14], in assay [16], in [17], in assay [7] and in [18] was > 100 µM (inactive) in each case. For the same compound, the GI50 in assay [9], in [19], in [10] and in [11] was > 100 µM (inactive) in each case.

Take `NNC(=O)c1nn[nH]c1SSc1[nH]nnc1C(=O)NN`: the GI50 in assay [1], in [12], in [2], in assay [3], in [13] and in assay [6] was > 100 µM (inactive) each time. Also, the GI50 in assay [15], in [16], in assay [17], in assay [7], in assay [18] and in assay [8] was > 100 µM (inactive) throughout. The GI50 in assay [9], in assay [19], in assay [10] and in [11] was > 100 µM (inactive) in each case.

With `COC(=O)NC1(NC(=O)OC)NC(=O)c2ccccc2N1`, the GI50 in assay [1], in assay [12], in assay [2], in [3], in assay [13] and in assay [4] was > 100 µM (inactive) in each case. In addition, the GI50 in assay [6] is > 100 µM (inactive); in assay [14] it was > 100 µM (inactive); in assay [15], > 100 µM (inactive); in assay [16], > 100 µM (inactive); in [17], 36.5 µM (inactive); in assay [7] it was > 100 µM (inactive). The GI50 in assay [18], in assay [8], in assay [9], in assay [19], in [10] and in assay [11] was > 100 µM (inactive) each time.

Take `Cn1c(-c2ccc(-c3cc(-c4cccs4)c(-c4cccs4)n3C)cc2)cc(-c2cccs2)c1-c1cccs1`: the GI50 in assay [12], in assay [2], in [3], in assay [13], in assay [4] and in assay [5] was > 100 µM (inactive) each time. Also, the GI50 in assay [6], in [15], in [16], in assay [17], in assay [7] and in assay [18] was > 100 µM (inactive) each time. Also, the GI50 in [8], in assay [9], in assay [10] and in assay [11] was > 100 µM (inactive) throughout.

In the case of `Clc1sc(Cl)c2c1[C@@H](Cl)C[C@@H]2Cl`, the GI50 was 53.8 µM (inactive) in assay [1]; 76 µM (inactive) in assay [12]; > 100 µM (inactive) in assay [2]; 84.9 µM (inactive) in assay [13]; 48.5 µM (inactive) in assay [4]; > 100 µM (inactive) in assay [6]. Moreover, the GI50 is 29.7 µM (inactive) in assay [14]; > 100 µM (inactive) in [15]; > 100 µM (inactive) in [16]; > 100 µM (inactive) in assay [17]; 48.1 µM (inactive) in assay [7]; > 100 µM (inactive) in [18]. In addition, the GI50 in assay [8] was 23.7 µM (inactive); in assay [9] it was 62.1 µM (inactive); in assay [19], > 100 µM (inactive); in assay [10] it was > 100 µM (inactive); in assay [11], > 100 µM (inactive).

In the case of `CCCCCCOC(=O)C(N)Cc1ccc(OC)cc1` (stereo unspecified), the GI50 in assay [1], in [12], in [2], in assay [3], in assay [13] and in assay [4] was > 100 µM (inactive) throughout. For the same compound, the GI50 in [6], in assay [14], in [15], in assay [16], in [17] and in assay [7] was > 100 µM (inactive) each time. The GI50 was > 100 µM (inactive) in assay [18]; 26.6 µM (inactive) in assay [8]; > 100 µM (inactive) in [9]; > 100 µM (inactive) in [19]; > 100 µM (inactive) in assay [10]; > 100 µM (inactive) in [11].

For `CCOC(=O)c1[nH]cc(C)c1-c1ccc2c(-c3ccccc3)nc3ccccc3n12`, the GI50 in [1] is 5.05 µM (inactive); in [12], 3.86 µM (inactive); in assay [2], 3.37 µM (inactive); in [3] it was 3.01 µM (inactive); in assay [13], 3.89 µM (inactive); in [4], 3.34 µM (inactive). The GI50 in assay [6] was 5.42 µM (inactive); in assay [15], 5.55 µM (inactive); in assay [16] it was 3.12 µM (inactive); in assay [17], 3.52 µM (inactive); in assay [7], 3.66 µM (inactive); in assay [18] it was 4.01 µM (inactive). The GI50 in assay [8] is 2.68 µM (inactive); in assay [9], 3.94 µM (inactive); in [19], 15.8 µM (inactive); in assay [10], 2.54 µM (inactive); in assay [11] it was 3.56 µM (inactive).

Consider `CC(=O)N1c2ccccc2Sc2cc(C(O)(C(F)(F)F)C(F)(F)F)ccc21`, for which the GI50 in assay [1], in assay [12], in assay [2], in assay [3], in assay [13] and in assay [4] was > 10 µM (inactive) in each case. Moreover, the GI50 in assay [6], in assay [14], in assay [15], in assay [16], in assay [17] and in [7] was > 10 µM (inactive) throughout. Moreover, the GI50 in assay [18], in assay [8], in [9], in assay [19], in assay [10] and in assay [11] was > 10 µM (inactive) each time.

For `COc1cc(OC)c2nc(C)c3c(c2c1)NCC3`, the GI50 in assay [1] is 6.34 µM (inactive); in [12] it was 8.73 µM (inactive); in [2] it was 4.48 µM (inactive); in [3], 6.03 µM (inactive); in [13], 15.2 µM (inactive); in [4], 0.776 µM (active). For the same compound, the GI50 in assay [6] was 7.74 µM (inactive); in assay [14], 10.4 µM (inactive); in [15], 11.6 µM (inactive); in [16] it was 4.32 µM (inactive); in [17] it was 11.2 µM (inactive); in assay [7], 9.75 µM (inactive). The GI50 is 4.88 µM (inactive) in assay [18]; 5.26 µM (inactive) in assay [8]; 5.92 µM (inactive) in assay [9]; 6.28 µM (inactive) in assay [19]; 4.05 µM (inactive) in assay [10]; 4.42 µM (inactive) in assay [11].
